In patent US8425997B2, “Cobalt bearing polymeric compositions” (Umicore, priority 2008, dated 2013):

Assay: Aqueous solubility (leaching) of Co, OECD-105 flask method
Type: physicochemical
Procedure: Experiments are performed to determine the aqueous solubility of the Co in the invented polymers. These tests are relevant as indicators for the bioavailability of Co.
[…] The leaching tests are conducted according to the OECD-105 standard flask method, as described in the OECD Guideline for the Testing of Chemicals, adopted on 27 Jul. 1995, and in the Official Journal of the European Communities L 383 A, 54-62 (1992).
The solubility of 3 typical polymers according to the invention is compared to that of 3 commercial products.

For Co-acetylacetonate, the “Solubility of Co in 0.9% NaCl solution, Co” value (solvent: 0.9% NaCl) was 1.4 mg/mL and the “Solubility of Co in water, Co” value (solvent: water) was 1.6 mg/mL.
